Assay results: patent publication US10813929B2, “Treating cancer with ATR inhibitors” (VERTEX PHARMACEUTICALS INCORPORATED, priority 2011, dated 2020)

What was measured:
[1] = test system: pancreatic cancer cell lines; experiment: Pancreatic cancer cell screen, CellTiter-Glo cell viability assay; type: cell-based
Experimental: All cell lines were seeded in 30 μl of tissue culture medium containing 10% FBS into 384-well opaque-bottom plates. The seeding density was based on the logarithmic growth rate of each cell line. After 24 hours, compound stock solutions were added to each well to afford a matrix consisting of 9 concentrations for VE-822 and 7 concentrations for Gemcitabine and Cisplatin. Each well contains either, agent alone or a combination of both agents. The final concentration ranges were as follows: VE-822, 0.3 nM-2 μM; Gemcitabine, 0.3 nM-0.22 μM; Cisplatin, 30 nM-20 μM. The cells were then incubated for 96 hours at 37° C. in an atmosphere of 5% CO2 and 95% humidity.
(§1) This assay measures the number of viable cells in a culture based on the quantitation of ATP, which is present in metabolically active cells.
(§2) CellTiter-Glo Reagent (Promega, Madison, Wis., USA) was prepared according to the manufacturer's instructions and added 96 hours after compound addition (25 μl/well) to measure cell viability. Luminescence signal was measured with the PHERAStarFS (BMG Labtech, Cary, N.C., USA) automated plate reader. […]
Raw luminescence CellTiter-Glo (CTG) values were normalized to the mean CTG value for the negative control DMSO-treated samples on each assay plate. IC50 values for chemotoxic alone were calculated using DMSO-normalized cell survival values for the samples treated with chemotoxic compound alone. […]

[2] = test system: MiaPaCa pancreatic cancer xenograft; experiment: MiaPaCa pancreatic cancer xenograft model with ionizing radiation; type: in vivo; details: FIG. 13
[3] = test system: panel of 35 human lung cancer cell lines; experiment: Lung cancer cell screen, CellTiter-Glo cell viability assay; type: cell-based; details: 96 hours
Experimental: All cell lines were seeded in 30 μl of tissue culture medium containing 10% FBS into 384-well opaque-bottom assay plates. The seeding density was based on the logarithmic growth rate of each cell line. After 24 hours, compound stock solutions were added to each well to afford a matrix consisting of 5 concentrations for VE-822 and 6 concentrations for chemotoxics. Each well contains either, agent alone or a combination of both agents. The final concentration range for VE-822 was 25 nM-2 μM. The concentration ranges for the chemotoxics were as follows: Etoposide, 10 nM-10 μM; Gemcitabine, 0.16 nM-160 nM; Cisplatin, 20 nM-20 μM; Oxaliplatin, 40 nM-40 μM; Irinotecan (SN-38), 0.12 nM-120 nM. The cells were then incubated for 96 hours at 37° C. in an atmosphere of 5% CO2 and 95% humidity.
as §1, §2
Raw luminescence CellTiter-Glo (CTG) values were normalized to the mean CTG value for the negative control DMSO-treated samples on each assay plate. […]

[4] = test system: PSN-1, Panc-1, MiaPaCa-2 pancreatic cancer cell lines; experiment: Cell viability assay (Alamar Blue) with irradiation, tumour cells; type: cell-based; details: VE-821 for 96 h with or without 4 Gy; viability after 8 days; FIG. 1 panel B
Experimental: PSN-1, Panc-1, MiaPaCa-2 pancreatic cancer cell lines and MRCS fibroblasts were treated with increasing concentrations of VE-821 for 96 h combined with or without 4 Gy radiation at 1 h after VE-821 addition. Cell viability was measured after 8 days and shown as normalized to DMSO-treated cells. MiaPaCa-2, PSN-1, Panc1 and MRCS cells (5×104) were plated in 96-well plates and after 4 h treated with increasing concentrations of VE-821 at 1 h before irradiation with a single dose of 6 Gy. Medium was replaced 96 h post-irradiation at which point viability was measured using the using the Alamar Blue assay (Resazurin substrate, SIGMA). Cells were allowed to proliferate and cell viability was again analyzed at day 8 for the different treatment conditions. Cell viability and surviving fraction were normalized to the untreated (control) group.

pancreatic cancer cells = experiment: Cell cycle analysis by flow cytometry after irradiation; type: cell-based; details: 1 μM VE-821 1 h prior to 6 Gy; FIG. 7 (hypoxic), FIG. 4
Experimental: VE-821 (1 μM) was added 1 h prior to 6 Gy irradiation and left for the duration of the experiment. Cells were lifted and fixed at 12 h or 24 h after irradiation, stained with propidium iodide and analysed for cell cycle distribution by flow cytometry (n=3) Cells were pre-incubated under hypoxic (0.5% O2) conditions for 6 h and 1 μM VE-821 was added 1 h prior to irradiation (6 Gy). Cells were transferred to normoxia 1 h after irradiation and were lifted and fixed at 12 h or 24 h after irradiation, stained with propidium iodide and analysed for cell cycle distribution by flow cytometry (n=3). Cells growing in 6-well dishes were treated with 1 μM VE-821 drug 1 h prior to 6 Gy irradiation. Cells were incubated for 6 h before irradiation under oxia (21% O2) or hypoxia (0.5% O2) using tightly sealed chambers. At multiple time points, cells were lifted in trypsin and fixed in 70% ethanol and stored at 4° C. Cells were incubated with propidium iodide (50 μg/ml in PBS containing 200 μg/ml RNAse) for 1 h at room temperature and analysed by flow cytometry (FACSort, Becton Dickinson). Cell cycle phase was quantitated using ModFit Cell Cycle Analysis software.

Row | Structure (SMILES) | synergy with cisplatin and gemcitabine in pancreatic cancer cell lines ([1]; maximum shift in IC50 of each chemotoxic, 96 hours, FIG. 18) | synergy (shift in IC50 of chemotoxic) in pancreatic cancer cell lines ([1]; with chemotoxics, FIG. 19) | antitumor effects of ionizing radiation (tumor volume over time) [2] | synergy with chemotoxics across lung cancer cell lines ([3]; maximum shift in IC50 of each chemotoxic, FIG. 16) | synergy (shift in IC50 of chemotoxic) in lung cancer cell lines ([3]; with cisplatin, etoposide, gemcitabine, oxaplatin and irinotecan, FIG. 17) | radiosensitisation of pancreatic tumour cells (cell viability) [4] | damage-induced cell cycle checkpoints (pancreatic cancer cells)
1 | CNCc1ccc(-c2cc(-c3nc(-c4ccc(S(=O)(=O)C(C)C)cc4)cnc3N)on2)cc1 [VE-822] | Synergizes with Cisplatin and Gemcitabine | Greater than 3 fold | enhances the antitumor effects of ionizing radiation | Synergizes with Chemotoxics | greater than 3 fold |  | 
2 | CS(=O)(=O)c1ccc(-c2cnc(N)c(C(=O)Nc3ccccc3)n2)cc1 [VE-821] |  |  |  |  |  | radiosensitises pancreatic tumour cells | disrupts damage-induced cell cycle checkpoints
